Measurements published in BindingDB's records for doi:10.1021/acsmedchemlett.0c00008 (Taisho Pharmaceutical, 2020).

Columns and labels:
[1] = Inhibition of Human respiratory syncytial virus A2 Fusion protein expressed in Hep2 cells assessed as reduction in virus-induced cytopathic effect after 4 days by XTT assay
[2] = Inhibition of Human respiratory syncytial virus Fusion protein D486N mutant expressed in Hep2 cells assessed as reduction in virus-induced cytopathic effect after 4 days by XTT assay

Row | SMILES | EC50 [1] | EC50 [2]
1 | CC[C@H]1c2cc3nc(N4CC[C@H](N)C4)cc(n3n2)N(C)CCCOc2ccc(C)cc2C(=O)N1C | 17 nM | > 1000 nM
2 | CC[C@H]1c2cc3nc(N4CC[C@H](N)C4)cc(n3n2)N(C)CCCCCCOc2ccc(C)cc2C(=O)N1C | 54 nM | > 1000 nM
3 | CC[C@H]1c2cc3nc(N4CC[C@H](N)C4)cc(n3n2)N(C)CCCCOc2ccc(C)cc2C(=O)N1C | 0.66 nM | 440 nM
4 | CC[C@@H](c1cc2nc(N3CC[C@H](N)C3)c(C)cn2n1)N(C)C(=O)c1cc(C)ccc1OC | 3.8 nM | > 1000 nM
5 | CC[C@H]1c2cc3nc(N4CC[C@H](N)C4)cc(n3n2)NCCCCOc2ccc(C)cc2C(=O)N1C | 61 nM | > 1000 nM
6 | Cc1ccc2c(c1)C(=O)N1CCCC[C@H]1c1cc3nc(N4CC[C@H](N)C4)cc(n3n1)N(C)CCCCO2 | 2 nM | 8.1 nM
7 | CC[C@H]1c2cc3nc(N4CC[C@H](N)C4)cc(n3n2)N(C)CCCCCOc2ccc(C)cc2C(=O)N1C | 6.2 nM | > 1000 nM
8 | CC[C@H]1c2cc3nc(N4CC[C@H](N)C4)c(C)c(n3n2)NCCCCOc2ccc(C)cc2C(=O)N1C | 1.4 nM | > 1000 nM
9 | CC[C@H]1c2cc3nc(N4CC[C@H](N)C4)c(C)c(n3n2)N(C)CCCCOc2ccc(C)cc2C(=O)N1C | 8.1 nM | > 1000 nM
